Assay results published in patent US20230339889A1, “DERIVATIVES OF 2-OXO-N-(4-(PYRIMIDIN-4-YLOXY/THIO)PHENYL)-1,2-DIHYDROPYRIDINE-3-CARBOXAMIDE FOR USE AS PROTEIN KINASE INHIBITORS FOR THERAPY” (AUCENTRA THERAPEUTICS PTY LTD, priority 2020, published 2023).

Key:
CDK2E = CDK2E (Homo sapiens, UniProt P24941); experiment: ADP Glo Kinase assay; type: biochemical; conditions: 1 µM compound; read-out: % Residual enzymatic activity at 1 µM CDK2E
Description: (§1) Inhibition of CDKs and FLT3 were determined using ADP Glo Kinase assays, as previously described in International Patent Publication No WO 2017/020065.

CDK4D1 = CDK4D1 (Homo sapiens, UniProt P11802); experiment: ADP Glo Kinase assay; type: biochemical; conditions: 1 µM compound; read-out: % Residual enzymatic activity at 1 µM CDK4D1
Description: as §1

FLT3-ITD = experiment: ADP Glo Kinase assay; type: biochemical; conditions: 1 µM compound
Description: as §1

TYRO3 = target: T1, TYRO3 (Homo sapiens, UniProt Q06418); experiment: Filter-binding radiometric kinase activity assay (KinaseProfiler, Eurofins); type: biochemical; conditions: 1 µM compound; read-out: % Residual enzymatic activity at 1 µM TYRO3
T1 construct: purchased Eurofins Discovery (Kinase Profiler service)
T1 sequence (Q06418 41-890): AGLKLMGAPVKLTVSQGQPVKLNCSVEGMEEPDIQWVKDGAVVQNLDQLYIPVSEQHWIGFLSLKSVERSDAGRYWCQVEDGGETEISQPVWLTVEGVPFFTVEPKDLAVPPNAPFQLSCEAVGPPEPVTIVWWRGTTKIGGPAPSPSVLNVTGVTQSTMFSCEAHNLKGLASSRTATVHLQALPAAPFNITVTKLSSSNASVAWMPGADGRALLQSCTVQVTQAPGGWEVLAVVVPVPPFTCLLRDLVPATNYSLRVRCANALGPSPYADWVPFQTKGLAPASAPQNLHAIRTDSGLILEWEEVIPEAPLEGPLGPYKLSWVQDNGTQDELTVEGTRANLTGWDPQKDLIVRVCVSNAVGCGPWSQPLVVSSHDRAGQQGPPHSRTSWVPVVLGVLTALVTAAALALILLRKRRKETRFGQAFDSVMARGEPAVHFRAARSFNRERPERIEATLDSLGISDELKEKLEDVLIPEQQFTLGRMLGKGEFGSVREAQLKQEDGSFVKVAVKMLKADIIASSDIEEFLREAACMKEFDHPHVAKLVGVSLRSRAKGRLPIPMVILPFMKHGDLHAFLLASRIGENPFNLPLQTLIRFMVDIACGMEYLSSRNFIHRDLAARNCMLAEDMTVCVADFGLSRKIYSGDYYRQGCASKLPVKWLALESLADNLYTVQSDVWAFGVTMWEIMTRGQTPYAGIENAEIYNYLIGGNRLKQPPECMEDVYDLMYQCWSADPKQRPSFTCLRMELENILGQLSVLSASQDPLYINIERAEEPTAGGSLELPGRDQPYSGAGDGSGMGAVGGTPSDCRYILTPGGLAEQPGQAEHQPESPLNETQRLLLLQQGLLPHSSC
Description: (§2) Filter-binding radiometric kinase activity assay (Kinase Profiler™) from Eurofins Discovery was used to determine the % of inhibition and/or IC50 values. […] The reaction is initiated by the addition of the Mg/ATP mixture. After incubation for 40 minutes at room temperature, the reaction is stopped by the addition of phosphoric acid to a concentration of 0.5%. 10 µL of the reaction is then spotted onto a P30 filter mat and washed four times for 4 minutes in 0.425% phosphoric acid and once in methanol prior to drying and scintillation counting. The IC50 values were derived by fitting a sigmoidal dose-response curve to a plot of assay readout over inhibitor concentration. All fits were computed with the GraphPad Prism Software (San Diego, CA, United States of America). Ki values were derived from IC5o values using Cheng Prusoff equation (Cheng Y et al., Biochem Pharmacol 22(23):3099-3108, 1973).

MET = target: T2, MET (Homo sapiens, UniProt P08581); experiment: as above; type: biochemical; conditions: 1 µM compound; read-out: % Residual enzymatic activity at 1 µM MET
T2 construct: purchased Eurofins Discovery (Kinase Profiler service)
Description: as §2

Mer = target: T3, Mer (Homo sapiens, UniProt Q12866); experiment: as above; type: biochemical; conditions: 1 µM compound; read-out: % Residual enzymatic activity at 1 µM Mer
T3 construct: purchased Eurofins Discovery (Kinase Profiler service)
T3 sequence (Q12866 21-999): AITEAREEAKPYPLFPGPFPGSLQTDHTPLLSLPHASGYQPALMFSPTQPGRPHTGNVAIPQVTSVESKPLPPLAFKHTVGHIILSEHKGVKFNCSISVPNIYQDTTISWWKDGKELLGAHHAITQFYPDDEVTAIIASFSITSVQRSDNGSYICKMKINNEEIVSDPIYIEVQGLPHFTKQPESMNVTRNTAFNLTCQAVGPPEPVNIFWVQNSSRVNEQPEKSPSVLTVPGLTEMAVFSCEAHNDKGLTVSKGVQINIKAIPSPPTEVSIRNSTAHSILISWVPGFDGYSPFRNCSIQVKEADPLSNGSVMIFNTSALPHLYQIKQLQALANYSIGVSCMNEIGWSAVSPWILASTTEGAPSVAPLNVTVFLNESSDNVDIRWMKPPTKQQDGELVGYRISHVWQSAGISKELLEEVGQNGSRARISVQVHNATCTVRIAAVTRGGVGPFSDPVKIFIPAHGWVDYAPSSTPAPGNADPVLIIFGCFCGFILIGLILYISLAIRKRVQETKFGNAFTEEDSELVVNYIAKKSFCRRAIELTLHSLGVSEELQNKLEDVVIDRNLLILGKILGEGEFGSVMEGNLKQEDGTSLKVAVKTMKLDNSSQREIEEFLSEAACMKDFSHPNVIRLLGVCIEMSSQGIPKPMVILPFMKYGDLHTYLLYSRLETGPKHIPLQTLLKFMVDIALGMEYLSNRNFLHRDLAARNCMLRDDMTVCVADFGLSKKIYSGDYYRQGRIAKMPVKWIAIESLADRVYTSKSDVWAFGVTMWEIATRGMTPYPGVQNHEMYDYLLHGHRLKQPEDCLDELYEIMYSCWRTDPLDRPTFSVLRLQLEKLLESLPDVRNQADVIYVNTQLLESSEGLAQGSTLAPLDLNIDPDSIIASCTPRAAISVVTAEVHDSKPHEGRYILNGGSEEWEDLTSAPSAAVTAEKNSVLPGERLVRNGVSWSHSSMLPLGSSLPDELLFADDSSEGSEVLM
Description: as §2

AXL = target: T4, AXL (Homo sapiens, UniProt P30530); experiment: as above; type: biochemical; conditions: 1 µM compound; read-out: % Residual enzymatic activity at 1 µM AXL
T4 construct: purchased Eurofins Discovery (Kinase Profiler service)
T4 sequence (P30530 26-894): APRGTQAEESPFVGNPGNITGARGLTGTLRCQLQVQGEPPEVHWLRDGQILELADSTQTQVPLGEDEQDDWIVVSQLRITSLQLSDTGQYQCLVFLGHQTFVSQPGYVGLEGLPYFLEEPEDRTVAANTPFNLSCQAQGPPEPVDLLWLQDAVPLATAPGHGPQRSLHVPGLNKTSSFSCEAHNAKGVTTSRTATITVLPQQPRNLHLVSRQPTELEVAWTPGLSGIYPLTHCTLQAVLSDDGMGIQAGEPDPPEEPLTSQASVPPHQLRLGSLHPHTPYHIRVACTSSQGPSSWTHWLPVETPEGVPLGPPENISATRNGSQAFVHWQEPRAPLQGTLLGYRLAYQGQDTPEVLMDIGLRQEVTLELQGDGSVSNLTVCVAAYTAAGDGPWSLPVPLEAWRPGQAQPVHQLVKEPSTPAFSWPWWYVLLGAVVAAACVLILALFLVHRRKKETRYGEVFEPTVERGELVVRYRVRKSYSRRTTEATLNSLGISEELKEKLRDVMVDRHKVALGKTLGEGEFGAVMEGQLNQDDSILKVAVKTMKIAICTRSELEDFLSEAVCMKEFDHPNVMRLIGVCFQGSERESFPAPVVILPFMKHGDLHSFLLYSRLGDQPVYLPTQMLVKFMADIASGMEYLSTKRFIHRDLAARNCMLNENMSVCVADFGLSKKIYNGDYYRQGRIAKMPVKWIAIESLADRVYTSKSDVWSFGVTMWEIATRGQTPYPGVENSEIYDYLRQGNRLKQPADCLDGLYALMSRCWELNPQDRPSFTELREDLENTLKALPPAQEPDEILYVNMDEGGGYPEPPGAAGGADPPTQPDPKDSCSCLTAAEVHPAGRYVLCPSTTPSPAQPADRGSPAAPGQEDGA
Description: as §2

MV4-11 = experiment: Proliferation assay (MTT, leukaemia cancer cell line); type: cell-based; conditions: Homo sapiens; 1 µM compound, MV4-11 cells
Excerpt: Compounds from Example 1 were subjected to standard resazurin and MTT assays on solid tumour and leukaemia cancer cell lines, respectively, as previously reported (Wang S et al., J Med Chem 47:1662-1675, 2004 and Diab S et al., CheMedChem 9:962-972, 2014).

T2 sequence (P08581 25-1390): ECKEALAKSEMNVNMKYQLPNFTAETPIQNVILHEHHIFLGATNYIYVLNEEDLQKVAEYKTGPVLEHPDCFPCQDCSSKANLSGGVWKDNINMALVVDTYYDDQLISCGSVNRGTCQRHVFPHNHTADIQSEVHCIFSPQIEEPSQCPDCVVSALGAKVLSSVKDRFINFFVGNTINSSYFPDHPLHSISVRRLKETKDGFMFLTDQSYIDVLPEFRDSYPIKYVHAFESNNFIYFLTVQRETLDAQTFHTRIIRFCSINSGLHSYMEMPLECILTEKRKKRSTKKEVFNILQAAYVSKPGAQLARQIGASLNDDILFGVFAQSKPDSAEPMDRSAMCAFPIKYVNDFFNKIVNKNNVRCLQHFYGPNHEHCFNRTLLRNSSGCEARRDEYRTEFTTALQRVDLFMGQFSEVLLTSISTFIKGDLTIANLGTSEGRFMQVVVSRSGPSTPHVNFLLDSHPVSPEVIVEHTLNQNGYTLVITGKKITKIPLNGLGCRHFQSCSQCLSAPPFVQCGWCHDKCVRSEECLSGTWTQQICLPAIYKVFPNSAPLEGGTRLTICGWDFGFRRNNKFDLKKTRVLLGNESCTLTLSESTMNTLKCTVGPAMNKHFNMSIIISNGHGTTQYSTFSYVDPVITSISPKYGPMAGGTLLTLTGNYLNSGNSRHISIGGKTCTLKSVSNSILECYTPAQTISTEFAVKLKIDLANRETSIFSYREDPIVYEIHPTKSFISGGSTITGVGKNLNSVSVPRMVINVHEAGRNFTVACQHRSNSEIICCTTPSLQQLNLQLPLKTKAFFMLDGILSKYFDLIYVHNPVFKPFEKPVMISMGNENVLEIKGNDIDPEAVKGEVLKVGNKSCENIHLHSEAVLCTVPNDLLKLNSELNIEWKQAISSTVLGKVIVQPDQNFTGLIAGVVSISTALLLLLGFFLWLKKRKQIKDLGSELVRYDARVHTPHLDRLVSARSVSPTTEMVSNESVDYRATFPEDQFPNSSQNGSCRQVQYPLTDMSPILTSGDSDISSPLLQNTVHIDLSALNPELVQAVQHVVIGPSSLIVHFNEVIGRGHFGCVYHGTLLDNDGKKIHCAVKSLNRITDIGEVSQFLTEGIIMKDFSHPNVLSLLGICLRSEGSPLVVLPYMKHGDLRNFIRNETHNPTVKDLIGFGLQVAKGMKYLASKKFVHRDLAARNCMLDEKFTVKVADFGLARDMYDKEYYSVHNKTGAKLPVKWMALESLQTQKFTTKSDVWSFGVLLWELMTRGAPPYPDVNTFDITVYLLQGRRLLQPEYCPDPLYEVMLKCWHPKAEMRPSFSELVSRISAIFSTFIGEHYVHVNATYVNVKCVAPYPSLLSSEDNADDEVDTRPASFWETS
Chain of CDK4D1 (P11802 whole entry): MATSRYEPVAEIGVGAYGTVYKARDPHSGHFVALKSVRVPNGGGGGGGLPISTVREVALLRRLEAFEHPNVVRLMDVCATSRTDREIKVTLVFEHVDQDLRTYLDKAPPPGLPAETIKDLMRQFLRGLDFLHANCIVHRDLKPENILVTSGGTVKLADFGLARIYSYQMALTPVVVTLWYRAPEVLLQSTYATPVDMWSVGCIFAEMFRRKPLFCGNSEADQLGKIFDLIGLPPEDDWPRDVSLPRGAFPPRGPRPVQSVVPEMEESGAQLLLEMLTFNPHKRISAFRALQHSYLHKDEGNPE
Chain of CDK4D1 (P24385 whole entry partner): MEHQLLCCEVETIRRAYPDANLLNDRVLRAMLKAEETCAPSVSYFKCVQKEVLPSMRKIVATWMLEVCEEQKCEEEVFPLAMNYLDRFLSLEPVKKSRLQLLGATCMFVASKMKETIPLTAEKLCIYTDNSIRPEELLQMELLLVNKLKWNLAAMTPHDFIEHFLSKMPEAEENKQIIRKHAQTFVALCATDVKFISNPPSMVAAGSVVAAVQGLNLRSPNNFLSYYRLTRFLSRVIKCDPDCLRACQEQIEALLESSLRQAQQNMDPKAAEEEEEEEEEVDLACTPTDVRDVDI

Row | remaining activity at 1 µM (CDK2E) [%] | remaining activity at 1 µM (CDK4D1) [%] | % Residual enzymatic activity at 1 µM FLT3-ITD (FLT3-ITD) [%] | remaining activity at 1 µM (TYRO3) [%] | remaining activity at 1 µM (MET) [%] | remaining activity at 1 µM (Mer) [%] | remaining activity at 1 µM (AXL) [%] | Structure (SMILES) | activity at 1 µM (MV4-11) [%]
1 | 94 | 38 | 52 | 0 | 2 | 1 | 2 | CCOc1ccn(-c2ccc(F)cc2)c(=O)c1C(=O)Nc1ccc(Oc2ncnc(N)c2Cl)c(F)c1 [Cmpd 2, N-(4-((6-amino-5-chloropyrimidin-4-yl)oxy)-3-fluorophenyl)-4-ethoxy-1-(4-fluorophenyl)-2-oxo-1,2-dihydropyridine-3-carboxamide] | 15
2 |  |  | 74 | 87 | 94 | 91 | 67 | Nc1ncnc(Oc2ccc(NC(=O)c3cccn(-c4ccc(F)cc4)c3=O)c(F)c2F)c1Cl [Cmpd 13, N-(4-((6-amino-5-chloropyrimidin-4-yl)oxy)-2,3-difluorophenyl)-1-(4-fluorophenyl)-2-oxo-1,2-dihydropyridine-3-carboxamide] | 7
